According to ChEMBL document CHEMBL4321794, “Discovery and Optimization of 2-Arylquinazolin-4-ones into a Potent and Selective Tankyrase Inhibitor Modulating Wnt Pathway Activity” (J Med Chem, 2019):
Values after ≈ are worked out from the molar mass of the structure shown.

Legend:
[1] = Thermodynamic solubility in phosphate buffer at pH 7.4 at 2 mg incubated under shaking condition for 6 hrs followed by rechecking and readjusting pH to 7.4 and further incubated for 18 hrs by HPLC/UV detection method; format: physicochemical; settings: read-out: Therm_solubility
[2] = biological target: T1, Protein mono-ADP-ribosyltransferase PARP12 (Homo sapiens, UniProt Q9H0J9); test: Inhibition of human N-terminal His/GST-tagged PARP12 (500 to 701 residues) expressed in baculovirus infected Sf9 insect cells using biotinylated substrate by chemiluminescence method
T1 sequence (Q9H0J9 whole entry): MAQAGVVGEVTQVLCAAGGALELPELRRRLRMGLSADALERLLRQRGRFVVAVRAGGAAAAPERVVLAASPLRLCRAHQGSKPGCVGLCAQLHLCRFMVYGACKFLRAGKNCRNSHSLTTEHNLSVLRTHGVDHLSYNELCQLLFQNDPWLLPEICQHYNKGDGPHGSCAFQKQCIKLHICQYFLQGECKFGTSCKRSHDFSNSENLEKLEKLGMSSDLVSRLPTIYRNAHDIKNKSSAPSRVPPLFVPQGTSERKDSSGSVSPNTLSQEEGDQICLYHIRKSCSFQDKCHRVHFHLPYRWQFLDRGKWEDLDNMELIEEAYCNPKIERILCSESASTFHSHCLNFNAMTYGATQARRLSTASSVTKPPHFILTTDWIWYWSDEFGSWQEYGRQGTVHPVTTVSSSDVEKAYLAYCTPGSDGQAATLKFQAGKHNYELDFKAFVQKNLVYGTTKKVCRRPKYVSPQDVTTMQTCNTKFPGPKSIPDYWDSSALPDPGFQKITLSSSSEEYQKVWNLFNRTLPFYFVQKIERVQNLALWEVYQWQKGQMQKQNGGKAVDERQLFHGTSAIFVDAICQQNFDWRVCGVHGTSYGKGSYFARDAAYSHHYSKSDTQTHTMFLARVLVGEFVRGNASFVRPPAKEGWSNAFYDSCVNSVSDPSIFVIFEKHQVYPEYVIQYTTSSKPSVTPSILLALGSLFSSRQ

[3] = Protein binding in mouse plasma assessed as unbound fraction at 30 mg/kg, po; format: ADME, organism-based
[4] = biological target: Protein mono-ADP-ribosyltransferase PARP6 (Homo sapiens, UniProt Q2NL67); test: Inhibition of N-terminal GST-tagged recombinant human full length PARP6 expressed in Baculovirus infected Sf9 cells using biotinylated substrate after 1 hr by chemiluminescence method
Sequence of Protein mono-ADP-ribosyltransferase PARP6 (Q2NL67 whole entry): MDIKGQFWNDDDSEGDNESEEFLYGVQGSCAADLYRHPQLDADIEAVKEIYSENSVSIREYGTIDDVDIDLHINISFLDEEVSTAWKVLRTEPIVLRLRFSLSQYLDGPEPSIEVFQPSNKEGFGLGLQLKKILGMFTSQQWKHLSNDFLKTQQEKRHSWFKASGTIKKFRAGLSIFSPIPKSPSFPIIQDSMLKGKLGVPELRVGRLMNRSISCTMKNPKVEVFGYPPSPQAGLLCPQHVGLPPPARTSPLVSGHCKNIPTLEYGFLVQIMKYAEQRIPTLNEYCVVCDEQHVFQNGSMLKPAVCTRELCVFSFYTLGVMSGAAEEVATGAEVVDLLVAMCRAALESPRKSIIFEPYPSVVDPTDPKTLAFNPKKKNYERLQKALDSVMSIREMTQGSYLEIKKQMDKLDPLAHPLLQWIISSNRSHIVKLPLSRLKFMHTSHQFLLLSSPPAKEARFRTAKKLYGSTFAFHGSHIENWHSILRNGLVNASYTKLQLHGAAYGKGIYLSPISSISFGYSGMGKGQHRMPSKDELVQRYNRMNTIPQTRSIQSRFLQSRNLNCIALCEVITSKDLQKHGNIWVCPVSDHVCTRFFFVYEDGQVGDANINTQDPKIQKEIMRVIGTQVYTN

solubility thermodynamic at 24 h [1]: 31 µg/mL (≈ 98 µM) | IC50 [2]: > 10 µM | fraction unbound [3]: 0.086 | IC50 [4]: > 10 µM
SMILES: CC(C)(O)c1ccc(-c2nc3c(F)cc(F)cc3c(=O)[nH]2)cc1
